# Source: paper PMC5218480 (PLoS ONE, 2017)
# Tested on: MV-4-11 cells
# Experiment: Gene expression microarray analysis (Affymetrix PrimeView) and GSEA
# Assay type: cell-based, human
# Design: RFU PODN (11730768_x_at) / Fold change /veh PODN (11730768_x_at) / RFU LINC00158 (11744669_a_at) / Fold change /veh LINC00158 (11744669_a_at) / RFU DUSP10 (11751237_a_at) / Fold change /veh DUSP10 (11751237_a_at) / RFU ID3 (11757404_x_at) / Fold change /veh ID3 (11757404_x_at) / RFU PLEKHG5 (11737974_s_at) / Fold change /veh PLEKHG5 (11737974_s_at) / RFU LRRC4B (11730491_at) / Fold change /veh LRRC4B (11730491_at) / RFU GIMAP4 (11747438_a_at) / Fold change /veh GIMAP4 (11747438_a_at) / RFU KRT8 (11758183_x_at) / Fold change /veh KRT8 (11758183_x_at) / RFU CNN1 (11734310_a_at) / Fold change /veh CNN1 (11734310_a_at) / RFU VPS37D (11726825_at) / Fold change /veh VPS37D (11726825_at) / RFU C10orf10 (11716522_x_at) / Fold change /veh C10orf10 (11716522_x_at) / RFU KIR2DL2 /// KIR2DL4 /// KIR2DL5A /// KIR2DL5B /// KIR2DS1 /// KIR2DS2 /// KIR2DS3 /// KIR2DS4 /// KIR3DL3 /// KIR3DL3 /// KIR3DS1 (11738374_at) / Fold change /veh KIR2DL2 /// KIR2DL4 /// KIR2DL5A /// KIR2DL5B /// KIR2DS1 /// KIR2DS2 /// KIR2DS3 /// KIR2DS4 /// KIR3DL3 /// KIR3DL3 /// KIR3DS1 (11738374_at) / RFU C1QL1 (11718748_at) / Fold change /veh C1QL1 (11718748_at) / RFU TMPRSS4 (11747572_a_at) / Fold change /veh TMPRSS4 (11747572_a_at) / RFU HAMP (11756126_x_at) / Fold change /veh HAMP (11756126_x_at) / RFU RNFT2 (11725882_a_at) / Fold change /veh RNFT2 (11725882_a_at) / RFU NR4A2 (11747474_a_at) / Fold change /veh NR4A2 (11747474_a_at) / RFU ABCC12 (11746883_a_at) / Fold change /veh ABCC12 (11746883_a_at) / RFU TMEM136 (11760407_x_at) / Fold change /veh TMEM136 (11760407_x_at) / RFU CLDN22 /// WWC2 (11732394_at) / Fold change /veh CLDN22 /// WWC2 (11732394_at) / RFU HLA-DPB1 (11760878_x_at) / Fold change /veh HLA-DPB1 (11760878_x_at) / RFU SPINT1 (11716480_a_at) / Fold change /veh SPINT1 (11716480_a_at) / RFU GAP43 (11754022_s_at) / Fold change /veh GAP43 (11754022_s_at) / RFU A4GNT (11735810_at) / Fold change /veh A4GNT (11735810_at) / RFU PRB3 (11715151_x_at) / Fold change /veh PRB3 (11715151_x_at) / RFU TUBB4B (11761932_at) / Fold change /veh TUBB4B (11761932_at) / RFU CAPN14 (11732068_a_at) / Fold change /veh CAPN14 (11732068_a_at) / RFU TMCC2 (11721928_a_at) / Fold change /veh TMCC2 (11721928_a_at) / RFU IRGQ (11745062_a_at) / Fold change /veh IRGQ (11745062_a_at) / RFU FAM174B (11720279_a_at) / Fold change /veh FAM174B (11720279_a_at) / RFU TMPRSS4 (11748680_a_at) / Fold change /veh TMPRSS4 (11748680_a_at) / RFU FAM212B (11763350_a_at) / Fold change /veh FAM212B (11763350_a_at) / RFU PLEKHG5 (11743358_a_at) / Fold change /veh PLEKHG5 (11743358_a_at) / RFU ZSCAN30 (11745921_a_at) / Fold change /veh ZSCAN30 (11745921_a_at) / RFU CMKLR1 (11741424_a_at) / Fold change /veh CMKLR1 (11741424_a_at) / RFU LOC101060620 /// MAPK8IP1 (11723275_at) / Fold change /veh LOC101060620 /// MAPK8IP1 (11723275_at) / RFU SPTSSB (11747773_x_at) / Fold change /veh SPTSSB (11747773_x_at) / RFU PRSS12 (11739890_at) / Fold change /veh PRSS12 (11739890_at) / RFU BIN1 (11741810_x_at) / Fold change /veh BIN1 (11741810_x_at) / RFU WNT11 (11732464_a_at) / Fold change /veh WNT11 (11732464_a_at) / RFU C10orf10 (11716521_a_at) / Fold change /veh C10orf10 (11716521_a_at) / RFU C5orf56 (11738089_at) / Fold change /veh C5orf56 (11738089_at) / RFU CYB561 (11721691_x_at) / Fold change /veh CYB561 (11721691_x_at) / RFU ANKRD19P (11752326_a_at) / Fold change /veh ANKRD19P (11752326_a_at) / RFU OR2T12 /// OR2T33 /// OR2T8 (11738714_s_at) / Fold change /veh OR2T12 /// OR2T33 /// OR2T8 (11738714_s_at) / RFU VCAN (11748164_a_at) / Fold change /veh VCAN (11748164_a_at) / RFU JSRP1 (11732532_at) / Fold change /veh JSRP1 (11732532_at) / RFU KRTAP10-11 (11738290_x_at) / Fold change /veh KRTAP10-11 (11738290_x_at) / RFU MYO3A (11730013_a_at) / Fold change /veh MYO3A (11730013_a_at) / RFU EBF3 (11725865_a_at) / Fold change /veh EBF3 (11725865_a_at) / RFU CAMK2N1 (11719241_x_at) / Fold change /veh CAMK2N1 (11719241_x_at) / RFU C5orf56 (11738088_a_at) / Fold change /veh C5orf56 (11738088_a_at) / RFU OLFML3 (11715873_a_at) / Fold change /veh OLFML3 (11715873_a_at) / RFU LOC100653217 /// NTM (11731650_a_at) / Fold change /veh LOC100653217 /// NTM (11731650_a_at) / RFU MAPK11 (11762145_a_at) / Fold change /veh MAPK11 (11762145_a_at) / RFU FIZ1 (11724087_x_at) / Fold change /veh FIZ1 (11724087_x_at) / RFU OASL (11726364_x_at) / Fold change /veh OASL (11726364_x_at) / RFU SOX15 (11748057_x_at) / Fold change /veh SOX15 (11748057_x_at) / RFU CD79A (11719716_a_at) / Fold change /veh CD79A (11719716_a_at) / RFU HIST1H1D (11736915_at) / Fold change /veh HIST1H1D (11736915_at) / RFU CASKIN2 (11723855_a_at) / Fold change /veh CASKIN2 (11723855_a_at) / RFU LOC730098 (11760151_x_at) / Fold change /veh LOC730098 (11760151_x_at) / RFU OR4N2 (11742367_at) / Fold change /veh OR4N2 (11742367_at) / RFU PRRT2 (11749266_a_at) / Fold change /veh PRRT2 (11749266_a_at) / RFU SNX32 (11753110_a_at) / Fold change /veh SNX32 (11753110_a_at) / RFU CDHR5 (11726645_a_at) / Fold change /veh CDHR5 (11726645_a_at) / RFU RCAN1 (11760418_a_at) / Fold change /veh RCAN1 (11760418_a_at) / RFU FAM167A (11723789_a_at) / Fold change /veh FAM167A (11723789_a_at) / RFU FAM26E (11764081_at) / Fold change /veh FAM26E (11764081_at) / RFU ISYNA1 (11749810_s_at) / Fold change /veh ISYNA1 (11749810_s_at) / RFU ACY1 (11761880_at) / Fold change /veh ACY1 (11761880_at) / RFU 11764098_at / Fold change /veh 11764098_at / RFU SAMD14 (11745864_x_at) / Fold change /veh SAMD14 (11745864_x_at) / RFU NPB (11741838_a_at) / Fold change /veh NPB (11741838_a_at) / RFU TMPRSS6 (11731388_a_at) / Fold change /veh TMPRSS6 (11731388_a_at) / RFU KRTAP10-2 (11738614_at) / Fold change /veh KRTAP10-2 (11738614_at) / RFU ARHGAP8 /// PRR5-ARHGAP8 (11727945_x_at) / Fold change /veh ARHGAP8 /// PRR5-ARHGAP8 (11727945_x_at) / RFU KRTAP5-7 /// NADSYN1 (11734609_at) / Fold change /veh KRTAP5-7 /// NADSYN1 (11734609_at) / RFU RASL12 (11751679_a_at) / Fold change /veh RASL12 (11751679_a_at) / RFU CDKN2B (11736163_a_at) / Fold change /veh CDKN2B (11736163_a_at) / RFU PRF1 (11729649_at) / Fold change /veh PRF1 (11729649_at) / RFU, ZNF638 /// ZNF638-IT1 / Fold change vs veh, ZNF638 /// ZNF638-IT1 / RFU, PANK3 / Fold change vs veh, PANK3 / RFU, SH3YL1 / Fold change vs veh, SH3YL1 / RFU, ZEB2 / Fold change vs veh, ZEB2 / RFU, NRIP1 / Fold change vs veh, NRIP1 / RFU, PTTG1IP / Fold change vs veh, PTTG1IP / RFU, CAPN2 / Fold change vs veh, CAPN2 / RFU, MED14 / Fold change vs veh, MED14 / RFU, SNORA58 / Fold change vs veh, SNORA58 / RFU, C1orf63 / Fold change vs veh, C1orf63 / RFU, LRRFIP1 / Fold change vs veh, LRRFIP1 / RFU, NDUFAF7 / Fold change vs veh, NDUFAF7 / RFU, SLC12A2 / Fold change vs veh, SLC12A2 / RFU, IBTK / Fold change vs veh, IBTK / RFU, ESF1 / Fold change vs veh, ESF1 / Fold change vs veh, TMEM50B / RFU, TAOK1 / Fold change vs veh, TAOK1 / RFU, ACBD3 / Fold change vs veh, ACBD3 / RFU, TMA16 / Fold change vs veh, TMA16 / RFU, RWDD3 / Fold change vs veh, RWDD3 / RFU, BCAT1 / Fold change vs veh, BCAT1 / RFU, EDEM3 / Fold change vs veh, EDEM3 / RFU, TMEM33 / Fold change vs veh, TMEM33 / RFU, WDR75 / Fold change vs veh, WDR75 / RFU, AHCTF1 / Fold change vs veh, AHCTF1 / RFU, TFRC / Fold change vs veh, TFRC / RFU, ZDHHC17 / Fold change vs veh, ZDHHC17 / RFU, NOM1 / Fold change vs veh, NOM1 / RFU, ARL8B / Fold change vs veh, ARL8B / RFU, ZBTB11 / Fold change vs veh, ZBTB11 / RFU, TAMM41 / Fold change vs veh, TAMM41 / RFU, KIAA1704 /// LOC100996395 / Fold change vs veh, KIAA1704 /// LOC100996395 / RFU, ING1 / Fold change vs veh, ING1 / RFU, TRMT61B / Fold change vs veh, TRMT61B / RFU, FUBP3 / Fold change vs veh, FUBP3 / RFU, TP53 / Fold change vs veh, TP53 / RFU, TNKS2 / Fold change vs veh, TNKS2 / RFU, ZFP14 / Fold change vs veh, ZFP14 / RFU, ACTR2 / Fold change vs veh, ACTR2 / RFU, PPP3R1 / Fold change vs veh, PPP3R1 / RFU, PIK3R1 / Fold change vs veh, PIK3R1 / RFU, HNRNPA1 / Fold change vs veh, HNRNPA1 / RFU, RNF170 / Fold change vs veh, RNF170 / RFU, ZNF28 / Fold change vs veh, ZNF28 / RFU, RNGTT / Fold change vs veh, RNGTT / RFU, OGT / Fold change vs veh, OGT / RFU, BRD1 / Fold change vs veh, BRD1 / RFU, MARS / Fold change vs veh, MARS / RFU, ZNF655 / Fold change vs veh, ZNF655 / RFU, FAHD1 / Fold change vs veh, FAHD1 / RFU, BDP1 / Fold change vs veh, BDP1 / RFU, LRRCC1 / Fold change vs veh, LRRCC1 / RFU, ARID1A / Fold change vs veh, ARID1A / RFU, ZNF146 / Fold change vs veh, ZNF146 / RFU, ZNF330 / Fold change vs veh, ZNF330 / RFU, GPN3 / Fold change vs veh, GPN3 / RFU, C9orf123 / Fold change vs veh, C9orf123 / RFU, N4BP2L2 / Fold change vs veh, N4BP2L2 / RFU, ARFIP1 / Fold change vs veh, ARFIP1 / RFU, FAM179B / Fold change vs veh, FAM179B / RFU, BCL10 / Fold change vs veh, BCL10 / RFU, UHRF1BP1L / Fold change vs veh, UHRF1BP1L / RFU, BET1 / Fold change vs veh, BET1 / RFU, CNOT2 / Fold change vs veh, CNOT2 / RFU, ZNF268 / Fold change vs veh, ZNF268 / Fold change vs veh, ZNF507 / RFU, DGCR2 / Fold change vs veh, DGCR2 / RFU, WDSUB1 / Fold change vs veh, WDSUB1 / Fold change vs veh, HSP90B1 /// MIR3652 / RFU, ADSS / Fold change vs veh, ADSS / RFU, GK / Fold change vs veh, GK / RFU, ZNF148 / Fold change vs veh, ZNF148 / RFU, TAF9 / Fold change vs veh, TAF9 / RFU, SLC1A5 / Fold change vs veh, SLC1A5 / RFU, SLMO2 / Fold change vs veh, SLMO2 / RFU, ABCC4 / Fold change vs veh, ABCC4 / RFU, LOC101060439 /// RAP1B / Fold change vs veh, LOC101060439 /// RAP1B / RFU, RFX7 / Fold change vs veh, RFX7 / RFU, GTPBP10 / Fold change vs veh, GTPBP10 / RFU, CNEP1R1 / Fold change vs veh, CNEP1R1 / RFU, BIVM-ERCC5 /// ERCC5 / Fold change vs veh, BIVM-ERCC5 /// ERCC5 / RFU, ILF3 / Fold change vs veh, ILF3 / RFU 11762660_at / Fold change /veh 11762660_at / RFU VCAN (11757783_s_at) / Fold change /veh VCAN (11757783_s_at) / RFU DDX43 (11728927_at) / Fold change /veh DDX43 (11728927_at) / RFU KRT8 (11758188_x_at) / Fold change /veh KRT8 (11758188_x_at) / RFU NKD1 (11759106_at) / Fold change /veh NKD1 (11759106_at) / RFU SRD5A1 (11742802_a_at) / Fold change /veh SRD5A1 (11742802_a_at) / RFU TPSAB1 /// TPSB2 (11721975_s_at) / Fold change /veh TPSAB1 /// TPSB2 (11721975_s_at) / RFU GSTM3 (11746129_a_at) / Fold change /veh GSTM3 (11746129_a_at) / RFU IL23R (11737362_x_at) / Fold change /veh IL23R (11737362_x_at) / RFU TMEM51 (11727254_a_at) / Fold change /veh TMEM51 (11727254_a_at) / RFU PIWIL2 (11732686_x_at) / Fold change /veh PIWIL2 (11732686_x_at) / RFU ORM1 (11744905_x_at) / Fold change /veh ORM1 (11744905_x_at) / RFU CCDC152 (11743942_at) / Fold change /veh CCDC152 (11743942_at) / RFU ECM1 (11717891_a_at) / Fold change /veh ECM1 (11717891_a_at) / RFU IL23R (11748794_a_at) / Fold change /veh IL23R (11748794_a_at) / RFU TNFAIP8L3 (11732012_x_at) / Fold change /veh TNFAIP8L3 (11732012_x_at) / RFU MBOAT4 (11741988_at) / Fold change /veh MBOAT4 (11741988_at) / RFU 11764193_at / Fold change /veh 11764193_at / RFU TMEM53 (11763286_at) / Fold change /veh TMEM53 (11763286_at) / RFU MAGEB2 (11727129_at) / Fold change /veh MAGEB2 (11727129_at) / RFU TMEM200A (11744735_a_at) / Fold change /veh TMEM200A (11744735_a_at) / RFU CCDC152 (11751479_a_at) / Fold change /veh CCDC152 (11751479_a_at) / RFU FAM211A (11726209_a_at) / Fold change /veh FAM211A (11726209_a_at) / RFU RGS16 (11746705_a_at) / Fold change /veh RGS16 (11746705_a_at) / RFU VCAN (11755009_s_at) / Fold change /veh VCAN (11755009_s_at) / RFU RHOB (11743442_s_at) / Fold change /veh RHOB (11743442_s_at) / RFU RGS16 (11720943_a_at) / Fold change /veh RGS16 (11720943_a_at) / RFU RGS16 (11720944_at) / Fold change /veh RGS16 (11720944_at) / RFU, VPS4B / Fold change vs veh, VPS4B / RFU, CREB1 / Fold change vs veh, CREB1 / RFU, DNAJC13 / Fold change vs veh, DNAJC13 / RFU, GNAQ / Fold change vs veh, GNAQ / RFU, CDK5R1 / Fold change vs veh, CDK5R1 / RFU, ZRANB3 / Fold change vs veh, ZRANB3 / RFU, CUL4A / Fold change vs veh, CUL4A / RFU, CCNY / Fold change vs veh, CCNY / RFU, UFL1 / Fold change vs veh, UFL1 / RFU, COG3 / Fold change vs veh, COG3 / RFU, DIAPH2 / Fold change vs veh, DIAPH2 / RFU, SKA2 / Fold change vs veh, SKA2 / RFU, AFF3 / Fold change vs veh, AFF3 / RFU, LMF1 / Fold change vs veh, LMF1 / RFU, IPO11 / Fold change vs veh, IPO11 / RFU, DFFB / Fold change vs veh, DFFB / RFU, FOXP1 / Fold change vs veh, FOXP1 / RFU, CARD8 / Fold change vs veh, CARD8 / RFU, STRN3 / Fold change vs veh, STRN3 / RFU, ADK / Fold change vs veh, ADK / RFU, RASSF2 / Fold change vs veh, RASSF2 / RFU, WIPF1 / Fold change vs veh, WIPF1 / RFU, LARP1B / Fold change vs veh, LARP1B / RFU, RASA1 / Fold change vs veh, RASA1 / RFU, RB1 / Fold change vs veh, RB1 / RFU, PPFIA1 / Fold change vs veh, PPFIA1 / RFU, MAT2A / Fold change vs veh, MAT2A / RFU, CCT5 / Fold change vs veh, CCT5 / RFU, WDR92 / Fold change vs veh, WDR92 / RFU, CUX1 / Fold change vs veh, CUX1 / RFU, TTC7A / Fold change vs veh, TTC7A / RFU, TMEM135 / Fold change vs veh, TMEM135 / RFU, DEPTOR / Fold change vs veh, DEPTOR / RFU, CPM / Fold change vs veh, CPM / RFU, DNAJB6 / Fold change vs veh, DNAJB6 / RFU, CACNA2D3 / Fold change vs veh, CACNA2D3 / RFU, DTX4 / Fold change vs veh, DTX4 / RFU, TFCP2 / Fold change vs veh, TFCP2 / RFU, GMCL1 /// GMCL1P1 / Fold change vs veh, GMCL1 /// GMCL1P1 / RFU, AEBP2 / Fold change vs veh, AEBP2 / RFU, SNHG1 /// SNORD22 /// SNORD25 /// SNORD26 /// SNORD27 /// SNORD28 /// SNORD29 /// SNORD31 / Fold change vs veh, SNHG1 /// SNORD22 /// SNORD25 /// SNORD26 /// SNORD27 /// SNORD28 /// SNORD29 /// SNORD31 / Fold change (Aza/veh), C12orf56 (ProbeSet 11735607_a_at) / Fold change (ACY-1035/veh), C12orf56 (ProbeSet 11735607_a_at) / Fold change (Aza/veh), FGFR1OP (ProbeSet 11751329_s_at) / Fold change (ACY-1035/veh), FGFR1OP (ProbeSet 11751329_s_at) / Fold change (Aza/veh), VPS36 (ProbeSet 11739960_a_at) / Fold change (ACY-1035/veh), VPS36 (ProbeSet 11739960_a_at) / RFU SYPL1 (11715823_x_at) / Fold change /veh SYPL1 (11715823_x_at) / RFU IGFBP7 (11715501_s_at) / Fold change /veh IGFBP7 (11715501_s_at) / RFU REEP3 (11722064_at) / Fold change /veh REEP3 (11722064_at) / RFU IGLL1 (11728026_x_at) / Fold change /veh IGLL1 (11728026_x_at): dose or concentration left out as unconfirmed
# Conditions: ProbeSet 11749551_a_at; LIST B
smiles,measurement,value
Nc1ncn([C@@H]2O[C@H](CO)[C@@H](O)[C@H]2O)c(=O)n1 [azacitidine],"RFU, RNGTT",56.67 RFU
